From patent US7666835B2 (Imperial Innovations Limited, priority 2001, dated 2010)
No end group written: not given here.

Key:
[1] = ICV injection in sated rats at onset of dark phase: food intake and behaviour (study 3); type: in vivo, rat; settings: study 3a, 3 nmol ICV, early dark phase, vs saline
Experimental: Food intake was measured 1 h postinjection (study 3a), and behaviour was assessed (study 3b).

[2] = iPVN injection, food intake in 24-h fasted rats (studies 1b, 2b); type: in vivo, rat; settings: for refeeding (food intake) after iPVN injection: study 1b, OXM, GLP-1 (3 nmol [sic]), exendin-4 0.03 nmol, glicentin, glucagon 1 nmol, SP-1 3 nmol, fasted rats
Experimental: (§1) Animals had permanent stainless steel guide cannulas (Plastics One, Roanoke, Va.) stereotactically implanted ICV or iPVN.
Therefore, exendin-4 was injected iPVN at a dose of 0.03 nmol.

[3] = ICV injection, food intake in 24-h fasted rats (studies 1a, 2a); type: in vivo, rat; settings: study 1a, 3 nmol ICV; for refeeding (food intake) after ICV injection: 24-h fasted rats, vs saline
From the text: as §1

[4] = tested on: fos-like immunoreactivity; experiment: fos-like immunoreactivity (FLI) in hypothalamus and brainstem after IP injection; type: in vivo, rat; settings: IP OXM 50 nmol/kg or CCK 15 nmol/kg; 90 minutes after injection
From the text: The brains were removed and post-fixed overnight in PBF and then transferred to PB-sucrose (20% w/v) overnight. 40 μm coronal sections of brain and brainstem were cut on a freezing microtome and stained for fos-like immunoreactivity (FLI) by the avitin-biotin-peroxidase method. The sections were then mounted on poly-L-lysine-coated slides, dehydrated in increasing concentrations of ethanol (50-100%), delipidated in xylene and coverslipped using DPX mountant. Slides were examined for FLI-positive nuclei using a light microscope (Nikon Eclipse E-800) and images captured using a microimager (Xillix MicroImager). The numbers of FLI-positive nuclei in the hypothalamus and brainstem were counted by an independent member of the research team who was blinded to the experimental groups. The average number of FLI-positive nuclei per section was calculated and expressed as an integer for each animal.

[5] = target: T1, GLP-1 receptor (Rattus norvegicus, UniProt P32301); experiment: ICV coadministration of exendin-(9-39) with GLP-1 or OXM, food intake (study 4a); type: in vivo; settings: 1 h food intake
T1 construct: from tissue; host or cells: rat hypothalamus (membrane preparation)
T1 sequence (P32301 22-463): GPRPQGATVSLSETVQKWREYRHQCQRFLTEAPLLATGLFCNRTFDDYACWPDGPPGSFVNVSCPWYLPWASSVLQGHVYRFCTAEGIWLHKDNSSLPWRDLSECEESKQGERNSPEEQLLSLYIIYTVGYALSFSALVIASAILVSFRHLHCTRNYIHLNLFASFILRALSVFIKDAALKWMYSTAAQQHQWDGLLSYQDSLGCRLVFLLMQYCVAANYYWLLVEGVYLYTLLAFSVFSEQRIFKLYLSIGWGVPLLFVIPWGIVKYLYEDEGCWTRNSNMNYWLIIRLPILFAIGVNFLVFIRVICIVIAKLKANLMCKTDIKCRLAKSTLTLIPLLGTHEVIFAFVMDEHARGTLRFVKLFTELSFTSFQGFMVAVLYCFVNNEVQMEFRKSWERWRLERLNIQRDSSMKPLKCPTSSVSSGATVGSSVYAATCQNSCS
Experimental: (§2) Animals had permanent stainless steel guide cannulas (Plastics One, Roanoke, Va.) stereotactically implanted ICV or iPVN. All studies were carried out in the early light phase, between 0900-1100 h, after a 24-h fast, and food intake was measured 1, 2, 4, 8, and 24 h postinjection.

[6] = target: T1, GLP-1 receptor; experiment: iPVN coinjection of exendin-(9-39) with GLP-1 or OXM, food intake (study 4b); type: in vivo
Experimental: as §2

[7] = target: T2, arcuate nucleus GLP-1 receptors (Rattus norvegicus, UniProt P32301); experiment: iARC exendin 9-39 prior to IP OXM or GLP-1, 1 hour food intake; type: in vivo
T2 construct: 24-hour fasted rats received an iARC injection of saline or exendin9-39 (5 nmoles); from tissue; host or cells: living rat, hypothalamic arcuate nucleus
T2 sequence (P32301 22-463): T1 sequence (P32301 22-463)
From the text: Rats cannulated into the arcuate nucleus were randomised into 6 groups (n=10-12 per group). […] The injection details are described in Table 1 below.

CC[C@H](C)[C@H](NC(=O)[C@H](Cc1ccccc1)NC(=O)[C@H](CCC(=O)O)NC(=O)[C@H](CCCCN)NC(=O)[C@H](C)NC(=O)[C@H](C)NC(=O)[C@H](CCC(N)=O)NC(=O)CNC(=O)[C@H](CCC(=O)O)NC(=O)[C@H](CC(C)C)NC(=O)[C@H](Cc1ccc(O)cc1)NC(=O)[C@H](CO)NC(=O)[C@H](CO)NC(=O)[C@@H](NC(=O)[C@H](CC(=O)O)NC(=O)[C@H](CO)NC(=O)[C@@H](NC(=O)[C@H](Cc1ccccc1)NC(=O)[C@@H](NC(=O)CNC(=O)[C@H](CCC(=O)O)NC(=O)[C@H](C)NC(=O)[C@@H](N)Cc1c[nH]cn1)[C@@H](C)O)[C@@H](C)O)C(C)C)C(=O)N[C@@H](C)C(=O)N[C@@H](Cc1c[nH]c2ccccc12)C(=O)N[C@@H](CC(C)C)C(=O)N[C@H](C(=O)N[C@@H](CCCCN)C(=O)NCC(=O)N[C@@H](CCCNC(=N)N)C(N)=O)C(C)C [GLP-1, glucagon-like peptide-1]
food intake 1 h postinjection [1]: significantly reduced food intake | refeeding (food intake) after iPVN injection [2]: inhibited refeeding | food intake after iPVN injection ([2]; study 2b, 1 nmol iPVN, until 8 h postinjection): significantly reduced | refeeding (food intake) after ICV injection [3]: significantly reduced refeeding | duration of inhibition of food intake postinjection ([3]; fasted rats): 4 h

CCK-8 (DYMGWMDF; ends and bridges not checked; UniProt P06307 96-103, looked up) [positive control for gastric emptying and brainstem FLI]
FLI / c-fos expression in the brainstem (NTS, area postrema) [4]: dense staining of FLI

exendin-4
refeeding (food intake) after iPVN injection [2]: inhibited refeeding

exendin-(9-39)
effect of coadministered exendin-(9-39) on anorectic effect of GLP-1 ([5]; exendin-(9-39) 30 nmol with GLP-1 3 nmol (10:1)): blocked the anorectic effects of GLP-1 | effect of coadministered exendin-(9-39) on anorectic effect of OXM ([5]; exendin-(9-39) 30 nmol with OXM 3 nmol): attenuation of the anorectic effect of OXM | effect of coinjected exendin-(9-39) on anorectic effect of GLP-1 ([6]; exendin-(9-39) 10 nmol with GLP-1 1 nmol): blocked | effect of coinjected exendin-(9-39) on anorectic effect of OXM ([6]; exendin-(9-39) 10 nmol with OXM 1 nmol): blocked | Food intake ([7]; 1 hour, iARC injection / IP injection 15 minutes later, exendin 9-39 5 nmoles, OXM or GLP-1 30 nmol/kg, Saline/saline 9.2): 9.0 g | effect of prior iARC exendin 9-39 on inhibition of food intake by IP GLP-1 ([7]; GLP-1 30 nmol/kg IP): not affected | effect of prior iARC exendin 9-39 on anorexia caused by IP OXM ([7]; exendin 9-39 (300 nmol/kg as printed) into the ARC, OXM 30 nmol/kg IP): blocked

glucagon
refeeding (food intake) after iPVN injection [2]: failed to affect food intake at any time point | refeeding (food intake) after ICV injection [3]: failed to affect food intake at any time point
